Reference: article PMC5628141 (Molecular cancer therapeutics, 2017)
pKd: −log10 of the molar value.

Target: T1, androgen receptor DNA binding domain (AR-DBD) (Rattus norvegicus, UniProt P15207, C552A)
T1 sequence (P15207 550-637 C552A): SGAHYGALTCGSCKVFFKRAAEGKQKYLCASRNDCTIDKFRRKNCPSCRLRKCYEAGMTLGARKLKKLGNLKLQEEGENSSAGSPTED
Assay: isothermal titration calorimetry

- pKd: ~4.19
Compound: Brc1cn(-c2csc(N3CCOCC3)n2)c(Br)n1 [VPC-14449, 4-(4-(2,4-bromo-1H-imidazol-1-yl)thiazol-2-yl)morpholine]
